pEC50, pIC50: −log10 of the molar value.
Experiments:
[1] = Acute toxicity in 12 hr fasted male CD-1(ICR) mouse assessed as changes in body weight at 2 g/kg, IG administered as single dose measured after 14 days; conditions: in vivo, po, 2000 mg/kg, 336 h, time 14 day
[2] = Acute toxicity in 12 hr fasted female CD-1(ICR) mouse assessed as pathological damage in kidney at 2 g/kg, IG administered as single dose measured after 14 days by H and E staining based analysis; format: tissue-based; conditions: in vivo, po, 2000 mg/kg, 336 h, time 14 day
[3] = molecular target: Human immunodeficiency virus type 1 reverse transcriptase (Human immunodeficiency virus 1, UniProt Q72547)
Description: Inhibition of HIV-1 reverse transcriptase using oligo(dT)16 as primer measured after 40 mins by picogreen-dye based spectrofluorometric analysis

[4] = Cmax in Sprague-Dawley rat at 5 mg/kg, po measured after 0.083 to 24 hrs by LC-MS analysis; format: ADME, organism-based; set-up: dose 5 mg/kg, time 0.083-24 hrs, route po; conditions: in vivo
[5] = Tmax in Sprague-Dawley rat at 1 mg/kg, iv measured after 0.083 to 24 hrs by LC-MS analysis; format: ADME, organism-based; conditions: in vivo, time 0.083-24 hrs
[6] = Cmax in Sprague-Dawley rat at 1 mg/kg, iv measured after 0.083 to 24 hrs by LC-MS analysis; format: ADME, organism-based; set-up: time upper 24 hrs, dose 1 mg/kg, time lower 0.083 hrs, route iv; conditions: in vivo
[7] = system: Human immunodeficiency virus 1; test: Antiviral activity against HIV-1 IIIB harboring reverse transcriptase […] mutant infected in human MT4 cells by MTT assay; format: functional, organism-based; conditions: Human immunodeficiency virus 1, IIIB
[8] = AUC (0 to t) in Sprague-Dawley rat at 1 mg/kg, iv measured after 0.083 to 24 hrs by LC-MS analysis; format: ADME, organism-based; set-up: time upper 24 hrs, dose 1 mg/kg, time lower 0.083 hrs, route iv; conditions: in vivo
hERG (KCNH2) = hERG (KCNH2) (Homo sapiens, UniProt Q12809); test: Inhibition of human ERG potassium channel transfected in CHO cells at 40 uM by automated patch clamp assay; format: toxicity, cell-based; conditions: CHO cells transfected with hERG
hERG (KCNH2), sequence (Q12809 whole entry): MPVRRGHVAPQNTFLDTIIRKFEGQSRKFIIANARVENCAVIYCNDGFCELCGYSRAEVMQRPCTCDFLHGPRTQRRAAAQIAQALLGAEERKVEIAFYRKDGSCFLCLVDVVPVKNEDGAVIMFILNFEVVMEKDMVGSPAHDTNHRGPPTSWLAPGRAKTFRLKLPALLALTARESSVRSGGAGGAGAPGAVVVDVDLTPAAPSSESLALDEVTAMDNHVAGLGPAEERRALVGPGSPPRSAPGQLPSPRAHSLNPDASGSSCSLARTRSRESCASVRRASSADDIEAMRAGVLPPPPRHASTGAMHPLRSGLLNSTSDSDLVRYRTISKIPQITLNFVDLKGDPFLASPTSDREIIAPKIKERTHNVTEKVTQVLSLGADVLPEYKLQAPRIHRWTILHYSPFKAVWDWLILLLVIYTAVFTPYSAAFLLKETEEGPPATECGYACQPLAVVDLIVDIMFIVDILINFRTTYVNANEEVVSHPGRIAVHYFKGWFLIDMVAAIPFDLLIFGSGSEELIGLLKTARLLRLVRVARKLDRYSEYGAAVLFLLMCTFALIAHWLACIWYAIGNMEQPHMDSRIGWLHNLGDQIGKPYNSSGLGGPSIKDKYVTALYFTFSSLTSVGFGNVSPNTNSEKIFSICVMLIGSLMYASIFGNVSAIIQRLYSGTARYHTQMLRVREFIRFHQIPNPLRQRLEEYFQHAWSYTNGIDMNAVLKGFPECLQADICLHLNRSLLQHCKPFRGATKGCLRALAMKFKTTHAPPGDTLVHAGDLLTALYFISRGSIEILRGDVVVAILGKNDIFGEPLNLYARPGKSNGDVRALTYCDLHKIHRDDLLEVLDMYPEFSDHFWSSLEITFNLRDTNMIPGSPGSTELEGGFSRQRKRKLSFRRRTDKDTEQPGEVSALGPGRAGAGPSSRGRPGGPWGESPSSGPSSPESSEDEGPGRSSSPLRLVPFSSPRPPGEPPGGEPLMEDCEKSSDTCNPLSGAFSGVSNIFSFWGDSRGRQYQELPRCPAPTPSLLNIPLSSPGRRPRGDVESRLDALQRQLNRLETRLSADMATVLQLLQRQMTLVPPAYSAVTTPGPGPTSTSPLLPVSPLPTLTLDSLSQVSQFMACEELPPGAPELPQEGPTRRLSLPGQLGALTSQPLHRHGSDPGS

[9] = Acute toxicity in 12 hr fasted male CD-1(ICR) mouse assessed as pathological damage in liver at 2 g/kg, IG administered as single dose measured after 14 days by H and E staining based analysis; format: tissue-based; conditions: in vivo, po, 2000 mg/kg, 336 h, time 14 day
[10] = MRT (0 to infinity) in Sprague-Dawley rat at 5 mg/kg, po measured after 0.083 to 24 hrs by LC-MS analysis; format: ADME, organism-based; conditions: in vivo, time 0.083-24 hrs
[11] = system: Human immunodeficiency virus 1; test: Antiviral activity against HIV-1 IIIB harboring reverse transcriptase E138K mutant infected in human MT4 cells by MTT assay; format: functional, organism-based; conditions: Human immunodeficiency virus 1, IIIB
[12] = Oral bioavailability in Sprague-Dawley rat at 5 mg/kg measured after 0.083 to 24 hrs by LC-MS analysis; format: ADME, organism-based; conditions: in vivo, time 0.083-24 hrs
in vitro = conditions: human, MT4 cells
Description: Selectivity index, ratio of CC50 for cytotoxicity against human MT4 cells to EC50 for antiviral activity against wild type HIV-1 IIIB infected in human MT4 cells

[13] = molecular target: Voltage-gated inwardly rectifying potassium channel KCNH2 (Homo sapiens, UniProt Q12809); test: Inhibition of human ERG potassium channel transfected in CHO cells by automated patch clamp assay; format: toxicity, cell-based
Voltage-gated inwardly rectifying potassium channel KCNH2, sequence (Q12809 whole entry): as above

Cytochrome P450 1A2 = molecular target: T1, Cytochrome P450 1A2 (Homo sapiens, UniProt P05177); test: Inhibition of CYP1A2 in human liver microsomes using phenacetin as substrate incubated for 15 to 45 mins in presence of NADPH
T1 sequence (P05177 whole entry): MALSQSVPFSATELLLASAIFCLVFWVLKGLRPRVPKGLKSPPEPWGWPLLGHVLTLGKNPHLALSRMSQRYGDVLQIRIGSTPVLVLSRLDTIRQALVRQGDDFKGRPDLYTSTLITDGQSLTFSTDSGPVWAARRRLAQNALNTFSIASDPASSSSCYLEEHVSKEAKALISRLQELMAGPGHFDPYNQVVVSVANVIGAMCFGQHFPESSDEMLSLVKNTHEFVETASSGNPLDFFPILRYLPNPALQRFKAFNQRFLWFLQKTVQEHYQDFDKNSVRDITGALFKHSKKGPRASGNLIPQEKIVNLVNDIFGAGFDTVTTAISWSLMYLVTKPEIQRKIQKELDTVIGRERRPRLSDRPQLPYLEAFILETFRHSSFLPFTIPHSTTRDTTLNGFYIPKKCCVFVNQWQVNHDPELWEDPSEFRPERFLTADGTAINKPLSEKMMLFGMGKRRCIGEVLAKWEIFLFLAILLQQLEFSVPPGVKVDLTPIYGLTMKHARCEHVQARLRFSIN

[14] = system: Human immunodeficiency virus 1; test: microbe, parasite or virus in culture; conditions: Human immunodeficiency virus 1, IIIB, MT4
Description: Antiviral activity against wild type HIV-1 IIIB infected in human MT4 cells assessed as protection against virus-induced cytopathic effect by MTT assay

[15] = Half life in Sprague-Dawley rat at 5 mg/kg, po measured after 0.083 to 24 hrs by LC-MS analysis; format: ADME, organism-based; conditions: in vivo, time 0.083-24 hrs
[16] = Acute toxicity in 12 hr fasted female CD-1(ICR) mouse assessed as pathological damage in lung at 2 g/kg, IG administered as single dose measured after 14 days by H and E staining based analysis; format: tissue-based; conditions: in vivo, po, 2000 mg/kg, 336 h, time 14 day
[17] = Acute toxicity in 12 hr fasted female CD-1(ICR) mouse assessed as pathological damage in brain at 2 g/kg, IG administered as single dose measured after 14 days by H and E staining based analysis; format: tissue-based; conditions: in vivo, po, 2000 mg/kg, 336 h, time 14 day
[18] = Half life in Sprague-Dawley rat at 1 mg/kg, iv measured after 0.083 to 24 hrs by LC-MS analysis; format: ADME, organism-based; conditions: in vivo, time 0.083-24 hrs
[19] = Acute toxicity in 12 hr fasted female CD-1(ICR) mouse assessed as behavioral abnormalities at 2 g/kg, IG administered as single dose measured after 14 days; conditions: in vivo, po, 2000 mg/kg, 336 h, time 14 day
[20] = AUC (0 to infinity) in Sprague-Dawley rat at 1 mg/kg, iv measured after 0.083 to 24 hrs by LC-MS analysis; format: ADME, organism-based; set-up: dose 1 mg/kg, time 0.083-24 hrs, route iv; conditions: in vivo
Cytochrome P450 2C19 = Cytochrome P450 2C19 (Homo sapiens, UniProt P33261); test: Inhibition of CYP2C19 in human liver microsomes using S-mephenytoin as substrate incubated for 15 to 45 mins in presence of NADPH
Cytochrome P450 2C19, sequence (P33261 whole entry): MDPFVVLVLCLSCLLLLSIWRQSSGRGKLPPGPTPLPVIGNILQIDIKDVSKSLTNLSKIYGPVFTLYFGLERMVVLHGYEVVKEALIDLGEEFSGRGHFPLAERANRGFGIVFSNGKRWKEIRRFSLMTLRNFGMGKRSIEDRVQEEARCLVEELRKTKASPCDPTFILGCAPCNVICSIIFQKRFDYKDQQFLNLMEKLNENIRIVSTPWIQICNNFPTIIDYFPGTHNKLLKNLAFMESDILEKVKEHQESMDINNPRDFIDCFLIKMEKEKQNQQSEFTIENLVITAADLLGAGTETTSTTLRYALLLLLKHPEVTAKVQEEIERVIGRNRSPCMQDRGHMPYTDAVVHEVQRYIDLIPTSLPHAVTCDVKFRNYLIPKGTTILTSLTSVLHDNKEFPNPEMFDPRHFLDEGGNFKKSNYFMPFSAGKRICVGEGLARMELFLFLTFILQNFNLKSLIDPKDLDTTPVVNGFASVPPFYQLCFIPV

[21] = Acute toxicity in 12 hr fasted male CD-1(ICR) mouse assessed as behavioral abnormalities at 2 g/kg, IG administered as single dose measured after 14 days; conditions: in vivo, po, 2000 mg/kg, 336 h, time 14 day
[22] = Acute toxicity in 12 hr fasted male CD-1(ICR) mouse assessed as animal death at 2 g/kg, IG administered as single dose measured after 14 days; conditions: in vivo, po, 2000 mg/kg, 336 h, time 14 day
Cytochrome P450 3A4 = Cytochrome P450 3A4 (Homo sapiens, UniProt P08684); test: Inhibition of CYP3A4 in human liver microsomes using midazolam as substrate incubated for 15 to 45 mins in presence of NADPH
Cytochrome P450 3A4, sequence (P08684 whole entry): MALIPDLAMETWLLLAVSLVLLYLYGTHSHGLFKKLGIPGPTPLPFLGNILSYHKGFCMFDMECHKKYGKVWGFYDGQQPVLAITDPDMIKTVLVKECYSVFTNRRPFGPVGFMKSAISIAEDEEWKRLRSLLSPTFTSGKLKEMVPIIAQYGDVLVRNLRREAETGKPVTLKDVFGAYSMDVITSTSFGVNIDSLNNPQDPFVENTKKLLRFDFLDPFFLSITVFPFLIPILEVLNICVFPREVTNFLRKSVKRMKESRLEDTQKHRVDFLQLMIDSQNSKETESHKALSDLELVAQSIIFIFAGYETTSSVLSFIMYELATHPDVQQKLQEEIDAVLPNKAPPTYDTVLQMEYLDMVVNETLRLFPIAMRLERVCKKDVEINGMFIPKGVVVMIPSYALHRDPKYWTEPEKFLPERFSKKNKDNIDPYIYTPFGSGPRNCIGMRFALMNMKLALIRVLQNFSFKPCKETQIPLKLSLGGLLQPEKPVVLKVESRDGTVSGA

[23] = Acute toxicity in 12 hr fasted male CD-1(ICR) mouse assessed as pathological damage in kidney at 2 g/kg, IG administered as single dose measured after 14 days by H and E staining based analysis; format: tissue-based; conditions: in vivo, po, 2000 mg/kg, 336 h, time 14 day
[24] = Clearance in Sprague-Dawley rat at 5 mg/kg, po measured after 0.083 to 24 hrs by LC-MS analysis; format: ADME, organism-based; conditions: in vivo, time 0.083-24 hrs
[25] = Tmax in Sprague-Dawley rat at 5 mg/kg, po measured after 0.083 to 24 hrs by LC-MS analysis; format: ADME, organism-based; conditions: in vivo, time 0.083-24 hrs
[26] = Acute toxicity in 12 hr fasted female CD-1(ICR) mouse assessed as pathological damage in liver at 2 g/kg, IG administered as single dose measured after 14 days by H and E staining based analysis; format: tissue-based; conditions: in vivo, po, 2000 mg/kg, 336 h, time 14 day
[27] = Acute toxicity in 12 hr fasted male CD-1(ICR) mouse assessed as pathological damage in spleen at 2 g/kg, IG administered as single dose measured after 14 days by H and E staining based analysis; format: tissue-based; conditions: in vivo, po, 2000 mg/kg, 336 h, time 14 day

Compound: COc1cc(-c2ccc(C#N)cc2)ccc1Oc1cc(N)nc(Nc2ccc(C#N)cc2)n1
- Activity [1]: Non-Toxic
- Activity [2]: Non-Toxic
- pIC50 [3]: 7.44
- Cmax [4]: 44.8 ng/mL
- Tmax [5]: 4.8 min
- Cmax [6]: 329 ng/mL
- pEC50 [7]: 7.72
- AUC(0-t) [8]: 326 ng·h/mL
- inhibition at 40 µM (hERG (KCNH2)): 35.9%
- Activity [9]: Non-Toxic
- MRT inf [10]: 2.89 h
- pEC50 [11]: 8.05
- bioavailability [12]: 7.57%
- selectivity ratio (in vitro): 63400
- pIC50 [13]: < 4.40
- pIC50 (Cytochrome P450 1A2): < 4.30
- pEC50 [14]: 8.72
- half-life [15]: 2.33 h
- Activity [16]: Non-Toxic
- Activity [17]: Non-Toxic
- half-life [18]: 1 h
- Activity [19]: Non-Toxic
- AUC(0-inf) [20]: 329 ng·h/mL
- pIC50 (Cytochrome P450 2C19): 5.35
- Activity [21]: Non-Toxic
- Activity [22]: Non-Toxic
- pIC50 (Cytochrome P450 3A4): < 4.30
- Activity [23]: Non-Toxic
- CL/F [24]: 675 mL/min/kg
- Tmax [25]: 0.83 h
- Activity [26]: Non-Toxic
- Activity [27]: Non-Toxic
